Results published in the kinase profiling compilation of Christmann-Franck et al. (2016).

Columns and labels:
Assay in all cases: KINOMEscan competition binding
Conditions in all cases: compound 10.0 µM
BMPR1B (human) = BMPR1B (human) (UniProt O00238)
[1] = system: BMX (human), P51813 [V600E]
CAMK1D (human) = CAMK1D (human) (UniProt Q8IU85)
CAMK2A (human) = CAMK2A (human) (UniProt Q9UQM7)
CDK14 (human) = CDK14 (human) (UniProt O94921)
CHEK2 (human) = CHEK2 (human) (UniProt O96017)
CLK2 (human) = CLK2 (human) (UniProt P49760)
CSNK1G3 (human) = CSNK1G3 (human) (UniProt Q9Y6M4)
DAPK3 (human) = DAPK3 (human) (UniProt O43293)
DCLK2 (human) = DCLK2 (human) (UniProt Q8N568)
[2] = system: EGFR (human), P00533 [A750P; 747-749 del]
EIF2AK2 (human) = EIF2AK2 (human) (UniProt P19525)
EPHB2 (human) = EPHB2 (human) (UniProt P29323)
ERBB3 (human) = ERBB3 (human) (UniProt P21860)
FGFR3 (human) = FGFR3 (human) (UniProt P22607)
FLT3 (human) = FLT3 (human) (UniProt P36888)
HUNK (human) = HUNK (human) (UniProt P57058)
IGF1R (human) = IGF1R (human) (UniProt P08069)
LCK (human) = LCK (human) (UniProt P06239)
MAP3K9 (human) = MAP3K9 (human) (UniProt P80192)
MAPK10 (human) = MAPK10 (human) (UniProt P53779)
MAPK11 (human) = MAPK11 (human) (UniProt Q15759)
MAPK15 (human) = MAPK15 (human) (UniProt Q8TD08)
PHKG1 (human) = PHKG1 (human) (UniProt Q16816)
PIP5K1A (human) = PIP5K1A (human) (UniProt Q99755)
PLK1 (human) = PLK1 (human) (UniProt P53350)
PRKAA2 (human) = PRKAA2 (human) (UniProt P54646)
PRKG1 (human) = PRKG1 (human) (UniProt Q13976)
RAF1 (human) = RAF1 (human) (UniProt P04049)
RIOK1 (human) = RIOK1 (human) (UniProt Q9BRS2)
RPS6KA2 KD1 (human) = RPS6KA2 KD1 (human) (UniProt Q15349)
STK11 (human) = STK11 (human) (UniProt Q15831)
[3] = molecular target: TYK2 JH1 catalytic (human) (UniProt P29597)
TYRO3 (human) = TYRO3 (human) (UniProt Q06418)
YSK4 (human) = YSK4 (human) (UniProt Q56UN5)

Sequence of RPS6KA2 KD1 (human) (Q15349 whole entry, looked up): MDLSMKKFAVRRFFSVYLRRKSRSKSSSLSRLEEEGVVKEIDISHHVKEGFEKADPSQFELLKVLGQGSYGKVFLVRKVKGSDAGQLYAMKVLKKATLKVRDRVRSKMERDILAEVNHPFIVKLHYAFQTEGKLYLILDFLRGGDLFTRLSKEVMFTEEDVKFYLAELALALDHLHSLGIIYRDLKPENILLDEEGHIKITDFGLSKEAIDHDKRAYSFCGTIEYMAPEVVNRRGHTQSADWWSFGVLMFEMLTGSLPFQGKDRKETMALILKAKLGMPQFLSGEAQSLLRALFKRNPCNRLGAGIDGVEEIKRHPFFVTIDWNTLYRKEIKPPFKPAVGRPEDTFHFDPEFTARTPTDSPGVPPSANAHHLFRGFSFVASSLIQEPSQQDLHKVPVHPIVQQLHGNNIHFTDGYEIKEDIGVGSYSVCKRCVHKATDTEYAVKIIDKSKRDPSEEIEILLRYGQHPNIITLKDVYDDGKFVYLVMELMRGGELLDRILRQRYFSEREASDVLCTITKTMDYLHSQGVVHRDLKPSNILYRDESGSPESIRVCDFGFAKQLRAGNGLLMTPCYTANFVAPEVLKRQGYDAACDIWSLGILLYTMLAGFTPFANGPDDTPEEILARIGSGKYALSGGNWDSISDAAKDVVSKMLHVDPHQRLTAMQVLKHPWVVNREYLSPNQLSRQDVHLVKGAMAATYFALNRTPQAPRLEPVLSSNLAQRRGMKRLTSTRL
Sequence of DAPK3 (human) (O43293 whole entry, looked up): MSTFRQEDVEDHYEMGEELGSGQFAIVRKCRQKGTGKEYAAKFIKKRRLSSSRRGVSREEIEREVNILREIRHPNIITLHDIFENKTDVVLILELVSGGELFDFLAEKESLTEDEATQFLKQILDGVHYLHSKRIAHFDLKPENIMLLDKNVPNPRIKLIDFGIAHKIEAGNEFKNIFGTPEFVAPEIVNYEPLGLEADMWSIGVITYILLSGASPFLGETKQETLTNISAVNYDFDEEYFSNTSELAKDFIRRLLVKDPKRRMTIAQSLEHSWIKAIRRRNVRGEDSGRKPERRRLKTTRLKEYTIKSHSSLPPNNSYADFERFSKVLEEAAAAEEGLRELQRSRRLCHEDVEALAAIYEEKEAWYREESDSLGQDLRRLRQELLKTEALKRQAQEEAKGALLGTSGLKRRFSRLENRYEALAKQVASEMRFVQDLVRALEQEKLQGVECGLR
Sequence of BMX (human), P51813 [V600E] (P51813 whole entry, looked up, stated change not applied): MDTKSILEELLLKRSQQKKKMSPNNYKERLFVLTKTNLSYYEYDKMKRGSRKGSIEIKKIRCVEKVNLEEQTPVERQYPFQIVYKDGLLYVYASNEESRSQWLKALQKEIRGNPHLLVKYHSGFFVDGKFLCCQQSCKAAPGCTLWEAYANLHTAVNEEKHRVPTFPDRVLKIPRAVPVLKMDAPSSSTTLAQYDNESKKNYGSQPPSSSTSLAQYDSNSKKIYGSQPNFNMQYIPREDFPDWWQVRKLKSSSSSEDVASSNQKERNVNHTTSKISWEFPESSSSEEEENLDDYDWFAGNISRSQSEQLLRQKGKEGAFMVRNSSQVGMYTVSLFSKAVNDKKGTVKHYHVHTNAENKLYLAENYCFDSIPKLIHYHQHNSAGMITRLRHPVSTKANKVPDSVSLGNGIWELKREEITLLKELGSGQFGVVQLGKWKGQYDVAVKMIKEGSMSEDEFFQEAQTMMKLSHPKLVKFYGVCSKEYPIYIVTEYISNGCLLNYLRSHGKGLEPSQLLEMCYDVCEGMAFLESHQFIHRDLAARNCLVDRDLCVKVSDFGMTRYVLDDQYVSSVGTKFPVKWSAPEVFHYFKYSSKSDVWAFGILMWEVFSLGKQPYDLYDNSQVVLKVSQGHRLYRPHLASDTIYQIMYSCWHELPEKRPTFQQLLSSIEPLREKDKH
Sequence of TYRO3 (human) (Q06418 whole entry, looked up): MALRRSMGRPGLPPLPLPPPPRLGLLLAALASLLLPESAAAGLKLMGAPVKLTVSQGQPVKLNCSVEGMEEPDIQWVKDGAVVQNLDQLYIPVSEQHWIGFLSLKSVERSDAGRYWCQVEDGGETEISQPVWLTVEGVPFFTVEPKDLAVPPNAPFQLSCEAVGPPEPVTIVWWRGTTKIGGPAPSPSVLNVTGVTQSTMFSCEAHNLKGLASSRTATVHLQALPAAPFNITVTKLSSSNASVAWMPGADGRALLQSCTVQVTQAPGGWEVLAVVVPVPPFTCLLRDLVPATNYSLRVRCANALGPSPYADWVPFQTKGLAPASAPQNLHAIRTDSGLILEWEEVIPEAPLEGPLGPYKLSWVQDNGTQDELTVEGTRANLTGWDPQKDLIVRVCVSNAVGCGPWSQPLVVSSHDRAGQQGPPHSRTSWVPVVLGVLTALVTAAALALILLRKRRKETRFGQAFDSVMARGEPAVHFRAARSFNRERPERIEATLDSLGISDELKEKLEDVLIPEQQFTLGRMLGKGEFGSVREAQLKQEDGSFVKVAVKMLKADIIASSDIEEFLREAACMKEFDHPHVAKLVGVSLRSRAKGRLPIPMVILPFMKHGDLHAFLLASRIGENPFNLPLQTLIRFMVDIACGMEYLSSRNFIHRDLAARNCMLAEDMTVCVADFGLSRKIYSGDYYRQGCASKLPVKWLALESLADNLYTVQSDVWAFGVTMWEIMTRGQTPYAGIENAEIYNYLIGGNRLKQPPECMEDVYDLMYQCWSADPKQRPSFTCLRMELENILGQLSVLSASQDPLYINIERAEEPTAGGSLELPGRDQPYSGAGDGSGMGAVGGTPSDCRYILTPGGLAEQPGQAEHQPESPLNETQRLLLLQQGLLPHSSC
Sequence of MAPK10 (human) (P53779 whole entry, looked up): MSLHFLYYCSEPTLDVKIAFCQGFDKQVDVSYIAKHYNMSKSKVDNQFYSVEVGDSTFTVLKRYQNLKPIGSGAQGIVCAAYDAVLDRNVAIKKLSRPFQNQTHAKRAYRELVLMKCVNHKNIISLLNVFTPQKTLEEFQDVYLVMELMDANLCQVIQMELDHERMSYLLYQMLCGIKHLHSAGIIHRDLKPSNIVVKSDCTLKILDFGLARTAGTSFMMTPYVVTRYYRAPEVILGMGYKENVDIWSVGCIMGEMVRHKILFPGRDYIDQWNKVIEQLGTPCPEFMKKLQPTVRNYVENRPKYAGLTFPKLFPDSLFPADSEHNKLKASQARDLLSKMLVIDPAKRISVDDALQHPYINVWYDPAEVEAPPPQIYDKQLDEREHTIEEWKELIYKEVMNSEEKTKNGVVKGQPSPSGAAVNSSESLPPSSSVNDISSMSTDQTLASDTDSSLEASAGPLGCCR
Sequence of CLK2 (human) (P49760 whole entry, looked up): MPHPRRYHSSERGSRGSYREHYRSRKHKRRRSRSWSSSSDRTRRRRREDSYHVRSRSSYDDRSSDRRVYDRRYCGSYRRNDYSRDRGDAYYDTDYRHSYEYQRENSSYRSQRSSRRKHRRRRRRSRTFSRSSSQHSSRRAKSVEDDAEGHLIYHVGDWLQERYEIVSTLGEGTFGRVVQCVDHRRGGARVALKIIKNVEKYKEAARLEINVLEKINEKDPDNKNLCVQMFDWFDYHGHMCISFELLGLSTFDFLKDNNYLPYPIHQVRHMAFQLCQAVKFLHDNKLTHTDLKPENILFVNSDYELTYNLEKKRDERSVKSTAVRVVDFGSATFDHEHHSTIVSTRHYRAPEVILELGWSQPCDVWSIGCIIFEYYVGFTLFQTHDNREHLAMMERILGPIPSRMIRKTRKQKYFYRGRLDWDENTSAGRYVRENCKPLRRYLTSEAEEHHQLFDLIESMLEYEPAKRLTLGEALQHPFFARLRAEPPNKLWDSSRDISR
Sequence of PRKAA2 (human) (P54646 whole entry, looked up): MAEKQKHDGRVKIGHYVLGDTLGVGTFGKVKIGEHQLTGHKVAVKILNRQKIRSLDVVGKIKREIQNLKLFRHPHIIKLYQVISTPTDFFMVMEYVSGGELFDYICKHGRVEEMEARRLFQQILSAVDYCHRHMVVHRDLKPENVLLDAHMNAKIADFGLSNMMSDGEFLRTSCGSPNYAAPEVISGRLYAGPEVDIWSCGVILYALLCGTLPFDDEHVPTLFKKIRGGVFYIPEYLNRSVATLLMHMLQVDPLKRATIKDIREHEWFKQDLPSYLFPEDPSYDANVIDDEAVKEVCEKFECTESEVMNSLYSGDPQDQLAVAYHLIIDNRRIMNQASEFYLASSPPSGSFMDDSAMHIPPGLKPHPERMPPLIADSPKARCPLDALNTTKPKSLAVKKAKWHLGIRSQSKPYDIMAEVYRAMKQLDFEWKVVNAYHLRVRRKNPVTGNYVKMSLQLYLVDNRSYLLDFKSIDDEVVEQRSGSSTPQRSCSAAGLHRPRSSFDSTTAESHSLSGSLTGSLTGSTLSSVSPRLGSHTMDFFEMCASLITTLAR
Sequence of PIP5K1A (human) (Q99755 whole entry, looked up): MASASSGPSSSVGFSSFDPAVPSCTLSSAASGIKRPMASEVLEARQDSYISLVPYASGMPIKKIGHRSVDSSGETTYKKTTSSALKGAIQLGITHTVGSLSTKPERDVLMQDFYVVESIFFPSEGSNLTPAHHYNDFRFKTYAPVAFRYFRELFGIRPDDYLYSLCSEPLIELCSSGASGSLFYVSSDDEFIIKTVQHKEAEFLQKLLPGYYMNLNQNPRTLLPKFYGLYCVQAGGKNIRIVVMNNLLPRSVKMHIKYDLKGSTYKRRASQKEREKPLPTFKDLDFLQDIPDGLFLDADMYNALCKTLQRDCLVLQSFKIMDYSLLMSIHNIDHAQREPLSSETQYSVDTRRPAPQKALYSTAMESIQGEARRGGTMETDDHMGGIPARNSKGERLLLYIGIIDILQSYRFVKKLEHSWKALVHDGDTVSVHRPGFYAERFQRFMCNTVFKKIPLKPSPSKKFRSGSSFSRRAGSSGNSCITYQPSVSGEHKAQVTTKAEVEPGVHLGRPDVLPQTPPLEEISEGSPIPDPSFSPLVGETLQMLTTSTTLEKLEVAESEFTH

Row | kinase still bound, per cent of control (BMPR1B (human)) [%] | kinase still bound, per cent of control [1] [%] | kinase still bound, per cent of control (CAMK1D (human)) [%] | kinase still bound, per cent of control (CAMK2A (human)) [%] | kinase still bound, per cent of control (CDK14 (human)) [%] | kinase still bound, per cent of control (CLK2 (human)) [%] | kinase still bound, per cent of control (CSNK1G3 (human)) [%] | kinase still bound, per cent of control (DAPK3 (human)) [%] | kinase still bound, per cent of control (DCLK2 (human)) [%] | kinase still bound, per cent of control [2] [%] | kinase still bound, per cent of control (EIF2AK2 (human)) [%] | kinase still bound, per cent of control (EPHB2 (human)) [%] | kinase still bound, per cent of control (FGFR3 (human)) [%] | kinase still bound, per cent of control (FLT3 (human)) [%] | kinase still bound, per cent of control (IGF1R (human)) [%] | kinase still bound, per cent of control (LCK (human)) [%] | kinase still bound, per cent of control (MAP3K9 (human)) [%] | kinase still bound, per cent of control (MAPK10 (human)) [%] | kinase still bound, per cent of control (MAPK11 (human)) [%] | SMILES | kinase still bound, per cent of control (MAPK15 (human)) [%] | further results
1 | 100 | 1.3 | 100 | 100 | 100 | 100 | 100 | 100 | 100 | 100 | 100 | 9 | 100 | 100 | 100 | 4 | 100 | 100 | 0 | Cc1cn(-c2cc(C(=O)Nc3ccc(C)c(NC(=O)c4ccno4)c3)cc(C(F)(F)F)c2)cn1 | 100 | kinase still bound, per cent of control (CHEK2 (human)): 100%; kinase still bound, per cent of control (ERBB3 (human)): 100%; kinase still bound, per cent of control (HUNK (human)): 100%; kinase still bound, per cent of control (PHKG1 (human)): 100%; kinase still bound, per cent of control (PIP5K1A (human)): 100%; kinase still bound, per cent of control (PLK1 (human)): 100%; kinase still bound, per cent of control (PRKAA2 (human)): 100%; kinase still bound, per cent of control (PRKG1 (human)): 100%; kinase still bound, per cent of control (RAF1 (human)): 6%; kinase still bound, per cent of control (RIOK1 (human)): 100%; kinase still bound, per cent of control (RPS6KA2 KD1 (human)): 100%; kinase still bound, per cent of control (STK11 (human)): 100%; kinase still bound, per cent of control [3]: 100%; kinase still bound, per cent of control (TYRO3 (human)): 100%; kinase still bound, per cent of control (YSK4 (human)): 100%
2 | 100 | 9.7 | 100 | 100 | 100 | 100 | 100 | 100 | 100 | 0.6 | 100 | 0.9 | 3.7 | 100 | 100 | 0.4 | 100 | 100 | 1.9 | COc1ccc(N(C(=O)Oc2cc(C(=O)Nc3cccc(C(F)(F)F)c3)ccc2C)c2ccnc(Nc3ccc(N4CCN(C)CC4)cc3)n2)c(OC)c1 | 100 | kinase still bound, per cent of control (PHKG1 (human)): 100%; kinase still bound, per cent of control (PIP5K1A (human)): 100%; kinase still bound, per cent of control (PLK1 (human)): 100%; kinase still bound, per cent of control (PRKAA2 (human)): 3.3%; kinase still bound, per cent of control (PRKG1 (human)): 100%; kinase still bound, per cent of control (RAF1 (human)): 23%; kinase still bound, per cent of control (RIOK1 (human)): 100%; kinase still bound, per cent of control (RPS6KA2 KD1 (human)): 100%; kinase still bound, per cent of control (STK11 (human)): 100%; kinase still bound, per cent of control [3]: 27%; kinase still bound, per cent of control (TYRO3 (human)): 100%
3 | 100 | 100 | 100 | 100 | 100 | 3.7 | 100 | 100 | 100 | 100 | 100 | 100 | 100 | 100 | 4.1 | 6.2 | 100 | 100 | 100 | COc1cc(C)c(Sc2cnc(NC(=O)c3ccc(CNC(C)C(C)C)cc3)s2)cc1C(=O)N1CCN(C(C)=O)CC1 (stereo not given) | 100 | kinase still bound, per cent of control (CHEK2 (human)): 100%; kinase still bound, per cent of control (PHKG1 (human)): 100%; kinase still bound, per cent of control (PIP5K1A (human)): 100%; kinase still bound, per cent of control (PLK1 (human)): 100%; kinase still bound, per cent of control (PRKAA2 (human)): 100%; kinase still bound, per cent of control (PRKG1 (human)): 100%; kinase still bound, per cent of control (RAF1 (human)): 100%; kinase still bound, per cent of control (RIOK1 (human)): 100%; kinase still bound, per cent of control (RPS6KA2 KD1 (human)): 100%; kinase still bound, per cent of control (STK11 (human)): 100%; kinase still bound, per cent of control [3]: 100%; kinase still bound, per cent of control (TYRO3 (human)): 100%
4 | 100 | 100 | 100 | 32 | 100 | 4.6 | 100 | 100 | 100 | 0.15 | 100 | 100 | 100 | 100 | 0.65 | 14 | 100 | 28 | 100 | COc1cc(N2CCC(C(N)=O)CC2)ccc1Nc1nc(N)c(Cl)c(Nc2ccccc2S(=O)(=O)C(C)C)n1 | 100 | kinase still bound, per cent of control (CHEK2 (human)): 14%; kinase still bound, per cent of control (PHKG1 (human)): 12%; kinase still bound, per cent of control (PIP5K1A (human)): 100%; kinase still bound, per cent of control (PLK1 (human)): 21%; kinase still bound, per cent of control (PRKAA2 (human)): 100%; kinase still bound, per cent of control (PRKG1 (human)): 100%; kinase still bound, per cent of control (RAF1 (human)): 100%; kinase still bound, per cent of control (RIOK1 (human)): 100%; kinase still bound, per cent of control (RPS6KA2 KD1 (human)): 100%; kinase still bound, per cent of control (STK11 (human)): 100%; kinase still bound, per cent of control [3]: 100%; kinase still bound, per cent of control (TYRO3 (human)): 100%
